Several values for one entry are separate records, joined by “and”; a condition that tells them apart may be missing. Identical values can stand only once.
How the values were obtained:
[1] = tested on: LNCaP/AR xenograft tumors; conditions: previously shown (Clegg et al., 2012; Tran et al., 2009); cited from earlier work
[2] = tested on: LNCaP/AR xenograft tumors; assay: LNCaP/AR xenografts in castrate mice, long-term antiandrogen treatment (pilot cohort); assay type: in vivo; conditions: for Mean Tumor Volume (mm^3): Day 0: 10 mg/kg oral gavage 5 days a week, start of treatment; for % Regression: D28 Mean: 10 mg/kg, day 28; for Mean Tumor Volume (mm^3) at harvest: harvest after progression on continued treatment; for Day of Harvest: Mean: tumors harvested after progression
GR mRNA (NR3C1) = assay: GR mRNA (RT-qPCR) in LNCaP/AR xenograft tumors, validation cohort; assay type: in vivo, mice; parameters: key: expression relative to beta-actin or GAPDH; conditions: individual tumor with acquired resistance to the drug (10 mg/kg), relative expression
Description: (§1) RNA was extracted from cell lines using the RNeasy kit (Qiagen). Frozen tumors were lysed with lysing matrix A using the Fast-Prep24 tissue homogenizer system (MP BIOMEDICALS) in Trizol (Invitrogen) followed by clean up with RNeasy (Qiagen). cDNA was generated with the High Capacity cDNA Reverse Transcription Kit (Applied Biosystems.) Data was quantified relative to either beta Actin or GAPDH expression and relative expression was generally plotted. Primers for ACTB (PPH00073E), NDRG1(PPH02202B), NR3C1(PPH02652A), and SGK1(PPH00387E), STK39 (PPH14239B), GRB10 (PPH05866B), TIPARP (PPH07883A), PMEPA1 (PPH01013B) were purchased from SA Biosciences. Other qPCR primers are as follows: […]

[3] = tested on: GR protein in LREX′ cells; assay: Intracellular GR flow cytometric analysis of LREX′ cells
Procedure: (§3) E. Intracellular GR flow cytometric analysis of indicated cells at indicated times points.
(§4) Cells were re-suspended in Fixation/Permeabilization working solution (eBioscience; San Diego, Calif., USA) at a concentration of 1-2×10^6 cells/ml for 30 minutes at room temperature. The cells were subsequently stained with primary antibodies, Rabbit (DA1E) mAb IgG XP® Isotype Control, androgen receptor (D6F11) XP® Rabbit mAb, or glucocorticoid receptor (D6H2L) XP® Rabbit mAb (Cell Signaling Technology; Danvers, Mass., USA) for 20 minutes at room temperature. The cells were washed twice with Flow Cytometry Staining Buffer (eBioscience; San Diego, Calif., USA), and then stained with secondary antibody, Allophycocyanin-AffiniPure F(ab′)2 Fragment Donkey Anti-Rabbit IgG (Jackson ImmunoResearch Laboratories, Inc.; Westgrove, Pa., USA) for 20 minutes at room temperature. Following two more washes, the cells were re-suspended in Flow Cytometry Staining Buffer and analyzed by flow cytometry on a LSRII (BD Biosciences; San Jose, Calif., USA) using FlowJo software (Tree Star, Ashland, Oreg., USA). For GR staining, cells were maintained in their standard media and treated with dexamethasone for 20 minutes prior to harvest to fully expose antigen.

GR mRNA [4] = assay: GR mRNA in LREX′ cell line in vitro; assay type: cell-based
Description: (§2) A. GR mRNA in LREX′ xenografts. […] . […] C. […] AUC=area under curve. […] . […] See also FIG. S7.
as §1

GR [5] = assay: Bone marrow evaluation: GR IHC of tumor cells in patients receiving enzalutamide; assay type: in vivo; conditions: bone metastases, enzalutamide 160 mg daily
Procedure: Patients were treated with enzalutamide 160 mg daily. Bone marrow biopsy and aspirate (˜5 mL) were performed before treatment and at week 8. The bone marrow specimens were obtained by transiliac biopsy, and samples were processed according to standard MD Anderson Cancer Center decalcification and fixation procedures. After pathologic evaluation, samples were stored in the MD Anderson Cancer Center Prostate Cancer Tissue Bank. Imaging studies were performed at the time of suspected prostate cancer progression or at the treating physician's discretion, but generally not prior to 12 weeks post-treatment initiation. […] Retrospective analysis for GR was performed by IHC on […] formalin-fixed, paraffin-embedded bone marrow biopsy sections with anti-GR at a dilution of 1:200 (BD Transduction Laboratories #611227). A Dako autostainer and standard 3,3-diaminobenzidine were used. GR expression was assessed in a blinded fashion by two pathologists scoring at least 100 tumor cells per specimen. Plotted are either data from all specimens or only from patients with usable material at baseline and 8 weeks.

LnCaP/AR and sub-lines = assay: In vitro growth by cell counting (Vi-cell); conditions: 1 micromolar, FIG. S7B
Procedure: B. Relative cell numbers determined by cell counting (Vi-cell) of indicated cells with vehicle or 1 micro-molar enzalutamide treatment.
LnCaP/AR and sub-lines: Equivalent numbers of cells were plated and then harvested and counted in triplicate at indicated time points using the Beckman Coulter Vi-Cell XR. Cells were passaged at each time point and identical numbers of cells re-plated. Fold increase in cell numbers were determined for each time interval.

VCaP cells [6] = conditions: Tran et al., 2009; cited from earlier work
GR mRNA [7] = assay: GR mRNA in LREX′ xenografts after enzalutamide discontinuation; assay type: in vivo, mice; conditions: 8 days after discontinuation, after 7 weeks of 10 mg/kg
Description: as §2, §1

VCaP cells [8] = assay: VCaP in vitro growth assay (CellTiter-Glo); assay type: cell-based; conditions: Enz 10 micromolar, standard culture conditions
Procedure: Enz=10 micromolar, Dex=100 nM, CMP 15=1 micromolar. A. Western blot analysis of prostate cancer cell lines. B, C and D. Cell viability assessed by CellTiter-Glo (Promega) assay and normalized to day 1 value after indicated treatments+/−s.e.m. E. Confirmation of GR knock-down by western blot after infection with GR targeting shRNA. F. Apoptosis as assessed by cPARP western blot after 3 days of indicated treatment. G. A suite of AR targets relevant to VCaP was defined (see methods) and normalized expression of each gene after 24 hours of indicated drug treatments is depicted by heat map and ranked by degree of induction with Dex. H. Expression of the top two genes from […]. (KLK2 and FKBP5) after 24 hours of indicated treatments+/−s.e.m. See also FIG. S6.
Viability is plotted normalized to day 1.

[9] = tested on: AR target genes in LREX′ cell line; assay: Expression of AR target genes in LREX′ cell line (RT-qPCR); assay type: cell-based
Description: A. Normalized expression array signal (Illumina HT-12) of a suite of 74 AR target genes in control (n=10), 4 day (n=8), and LREX′ (n=8, right) xenograft tumors. Genes are ranked by degree of restoration of expression in resistant tissue ((Res-4 day)/(Control-4 day)). All resistant tissues were continued on anti-androgen treatment through time of harvest. B. Fractional restoration values of each of the 74 AR targets in LREX′ xenografts (n=8) or resistant tissues from the validation cohort (n=12, see also FIG. S3). C. GR mRNA in resistant tissues used in B. D. Expression of AR target genes in the LREX′ cell line in steroid depleted media after 8 hours of treatment with the indicated agonists, in vitro. Enzalutamide=10 micromolar, V=Vehicle.+/−s.e.m. See also FIGS. S3, S4.
A. LnCaP/AR cells engineered to express GFP or GR were treated with indicated drugs. […] D. Control or AR siRNA knock-down in LREX′ followed by treatment with indicated drugs. […] Cells were treated in charcoal stripped media. Expression determined by RT-qPCR+/−s.e.m.
LREX′ cells were derived from a single enzalutamide resistant tumor that was harvested, disaggregated with collagenase treatment, and then maintained in RPMI supplemented with 20% FBS and 1 μM enzalutamide. Cells were initially grown on collagen-coated flasks until confluent and then were maintained on standard tissue culture dishes. CS1 were similarly derived from vehicle treated tumors and maintained in standard LNCaP/AR media. LNCaP/AR and LREX′ cells were cultured in phenol-red free RPMI with 10% charcoal-stripped FBS prior to drug treatments.
as §1

[10] = Tran et al., 2009; cited from earlier work
[11] = tested on: GR protein in CS1 or LnCaP/AR; assay: Intracellular GR flow cytometric analysis of CS1 or LnCaP/AR cells; conditions: enzalutamide 1 micromolar, 4 week experiment
Procedure: as §3, §4

DU145 and PC3 cells = conditions: AR-negative cells; cited from earlier work
LREX′ cells = assay: Expression profiling (global transcriptome) of LREX′ cells; assay type: cell-based; conditions: enzalutamide 10 micromolar
PSA = assay: Maximal PSA decline in patients receiving enzalutamide; assay type: in vivo; conditions: enzalutamide 160 mg daily
[12] = tested on: AR target gene expression; assay: AR target gene expression with GR antagonists; assay type: cell-based
GR [13] = biological target: GR (Homo sapiens, UniProt P04150); conditions: patients with Cushing syndrome; cited from earlier work
GR (Homo sapiens, UniProt P04150), sequence (P04150 whole entry): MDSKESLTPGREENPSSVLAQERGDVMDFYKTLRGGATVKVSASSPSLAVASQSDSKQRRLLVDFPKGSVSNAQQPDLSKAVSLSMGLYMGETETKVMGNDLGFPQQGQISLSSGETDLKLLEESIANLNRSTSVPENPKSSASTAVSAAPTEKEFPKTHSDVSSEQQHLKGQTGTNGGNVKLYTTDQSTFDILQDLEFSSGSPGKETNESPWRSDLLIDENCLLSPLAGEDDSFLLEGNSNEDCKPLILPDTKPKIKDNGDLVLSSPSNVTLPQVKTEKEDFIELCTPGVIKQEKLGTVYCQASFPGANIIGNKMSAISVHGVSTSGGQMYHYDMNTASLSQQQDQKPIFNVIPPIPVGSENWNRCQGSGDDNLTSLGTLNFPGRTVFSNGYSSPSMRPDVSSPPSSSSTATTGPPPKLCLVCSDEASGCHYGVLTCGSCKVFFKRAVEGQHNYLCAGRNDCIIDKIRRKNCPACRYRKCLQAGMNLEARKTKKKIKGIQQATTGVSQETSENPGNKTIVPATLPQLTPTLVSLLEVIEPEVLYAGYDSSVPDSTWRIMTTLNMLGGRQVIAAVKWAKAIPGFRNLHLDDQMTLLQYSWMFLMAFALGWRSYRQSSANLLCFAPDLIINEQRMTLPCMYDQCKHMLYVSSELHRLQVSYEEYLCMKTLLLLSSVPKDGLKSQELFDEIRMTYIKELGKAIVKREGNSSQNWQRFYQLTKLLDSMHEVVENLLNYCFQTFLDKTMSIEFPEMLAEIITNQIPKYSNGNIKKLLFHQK

[14] = in vivo; cited from earlier work
[15] = LREX′^off, enzalutamide 1 micromolar
[16] = enzalutamide 10 micromolar, 8 hours
[17] = steroid depleted media, 8 hours

CNC(=O)c1ccc(N2C(=S)N(c3ccc(C#N)c(C(F)(F)F)c3)C(=O)C23CCC3)cc1F [RD162]
LNCaP/AR xenograft tumors during the first 28 days of treatment [1]: regress
Mean Tumor Volume (mm^3): Day 0 [2]: 379 mm^3
% Regression: D28 Mean [2]: 80%
Mean Tumor Volume (mm^3) at harvest [2]: 554 mm^3
Day of Harvest: Mean [2]: D173 days

CNC(=O)c1ccc(N2C(=S)N(c3ccc(C#N)c(C(F)(F)F)c3)C(=O)C2(C)C)cc1F [enzalutamide]
LNCaP/AR xenograft tumors during the first 28 days of treatment [1]: regress
GR mRNA Expression (GR mRNA (NR3C1); listed as Enz): 29.8 and 24.2 and 24.0 and 14.3 and 0.5 and 127.7 and 53.0
half-life of exponential decay in median GR protein signal upon withdrawal ([3]; LREX′ after enzalutamide withdrawal): 182 h
GR expression after continued drug exposure for 7 weeks [3, 15]: clear shift in GR expression in essentially all cells
doubling time of GR expression on re-exposure [3, 15]: 6.8 days
time to plateau in loss of GR expression upon withdrawal ([3]; followed to 17 weeks): ≤ 7 weeks
GR mRNA levels after withdrawal in vitro (GR mRNA [4]; LREX′ passaged without enzalutamide, 23 days): dropped as early as 1 day after discontinuation and continued to decline throughout the 23 days
effect of co-treatment on DHT reduction of GR mRNA (GR mRNA [4]; [16]): reversed
mean percentage of GR positive cells at 8 weeks, poor responders (GR [5]): 29%
percentage of GR-positive cells at 8 weeks, good responders (GR [5]): 10%
antiproliferative effect in vitro (LnCaP/AR and sub-lines): weak antiproliferative effect
sensitivity of VCaP cells in vitro (VCaP cells [6]): enzalutamide-sensitive
drop of GR mRNA levels after treatment discontinuation (GR mRNA [7]): ~5 fold
growth of VCaP cells (VCaP cells [8]): inhibited growth
effect on Dex activity at AR target genes ([9]; enzalutamide 10 micromolar): did not notably affect
effect on DHT regulation of the 8 genes [9, 16]: blocked
half-life in mice [10]: prolonged half-life
median GR expression intensity ([11]; cells not previously exposed): no change
area under the GR staining population [11]: did increase
sensitivity of DU145 and PC3 cells (DU145 and PC3 cells): resistant
effect on Dex-induced gene expression (heatmap) (LREX′ cells): not impacted
good responders with maximal PSA decline greater than 50% (PSA; benefit for greater than 6 months): 11 of 13
poor responders with maximal PSA decline greater than 50% (PSA; discontinued earlier than 6 months): 1 of 14

CC#C[C@]1(O)CCC2C3CCC4=CC(=O)CCC4=C3[C@@H](c3ccc4c(c3)OCO4)C[C@@]21C (stereo partly drawn) [ORG34517]
effect on AR target gene expression [12]: activate

CC#C[C@]1(O)CC[C@H]2[C@@H]3CCC4=CC(=O)CCC4=C3[C@@H](c3ccc(N(C)C)cc3)C[C@@]21C [mefipristone]
effect on AR target gene expression [12]: activate
risk-benefit of GR inhibition in humans (GR [13]): acceptable risk-benefit profile

CC(C)C(=O)Nc1ccc([N+](=O)[O-])c(C(F)(F)F)c1 [flutamide]
Distribution: Protein-binding [14]: Distribution: Protein-binding: 90%
Excretion [14]: Urine, faeces (small amounts)

CNC(=O)c1ccc(N2C(=S)N(c3cnc(C#N)c(C(F)(F)F)c3)C(=O)C23CCC3)cc1F [ARN-509]
LNCaP/AR xenograft tumors during the first 28 days of treatment [1]: regress
GR mRNA Expression (GR mRNA (NR3C1); listed as ARN): 47.4 and 41.6 and 30.2 and 14.5 and 11.4 and 1.4 and 0.8 and 172.1 and 103.8
Mean Tumor Volume (mm^3): Day 0 [2]: 341 mm^3
% Regression: D28 Mean [2]: 71%
Mean Tumor Volume (mm^3) at harvest [2]: 337 mm^3
Day of Harvest: Mean [2]: D145 days

C[C@]12CCC(=O)C[C@@H]1CC[C@@H]1[C@@H]2CC[C@]2(C)[C@@H](O)CC[C@@H]12 [DHT, dihydrotestosterone]
GR mRNA levels after DHT exposure (GR mRNA [4]; charcoal stripped media, 8 hours): reduced
expression of 7 AR targets and PSA (8 genes) [9, 17]: regulated
expression of KLK3 (PSA) [9, 17]: comparably induced
